In one assay the test system is mast cells. As to the kind of experiment: Histamine release assay (compound 48/80 stimulated mast cells). Type of assay: cell-based, Wistar rats. As to conditions: 2 × 10^−5 M, rat peritoneal mast cells; for inhibition at 20 µM: Rattus norvegicus, Mast cell, read-out: Percentage Inhibition of Histamine Release. As to the method:
(§1) The compounds were assessed for their ability to stabilize mast cell membranes in vitro. Mast cells treated with the compounds and un-treated mast cells were stimulated to release histamine. A reduction in histamine release by the treated cells compared to the untreated cells indicates stabilisation of the membrane. The compounds were assessed for their ability to relax smooth muscle in vitro. Intestinal smooth muscle was stimulated to contract, using calcium chloride and subsequently treated with the compounds, relaxation of the contraction was measured for each compound. The effects of the compounds were also studied on relaxation of guinea-pig tracheal muscle. In the rat paw oedema test, the drugs were administered systemically prior to inducing inflammation by the injection of carageenan below the plantar aponeurosis of the hind paw. The volume of the paw was determined both before and after treatment as an index of oedema. In the mouse ear oedema test, the drugs were administered topically prior to inducing inflammation by the topical application of arachidonic acid. The width of the ear was determined both before and after treatment as an index of oedema.
The buffered salt solution (BSS) was prepared in advance (NaCl 137 mM; KCl 2.7 mM; MgCl2 1.0 mM; CaCl2 0.5 mM, NaH2PO4 0.4 mM; Glucose 5.6 mM; HEPES 10 mM). This was dispensed into test tubes and heated to 37° C., each test tube contained 4.5 ml BSS. The solvent blank was supplemented with 0.5% (v/v) dimethyl sulphoxide (DMSO) or 0.5% (v/v) distilled water (dH2O). The two positive controls were supplemented with 0.5% (v/v) dH2O/2×10^−5M disodium cromoglycate (DSCG) and 0.5% (v/v) DMSO/2×10^−5M DSCG. The test compounds' incubation tubes contained 2×10^−5M test compound/0.5% (v/v) DMSO. The basal release, maximum release and total histamine content incubation tubes contained no additions.
Female Wistar rats (200-300 g) were killed in an atmosphere of saturated CO2. Pre-warmed BSS (10 ml) was injected i.p. and the abdomen was massaged for 3 min. The BSS, with suspended mast cells and other cells, was aspirated following a mid-line incision. The aspirate was centrifuged for 5 min at 400 g and the supernatant removed. The cells were re-suspended in BSS, at 4° C., and centrifuged as before the cells were washed in this manner a total of three times. Following the final wash, the pelleted cells were stored at 4° C., for use as soon as possible.
The cells were re-suspended in 7 ml BSS. From this, 0.5 ml aliquots were transferred to each of the incubation tubes. After 10 min at 37° C. with gentle agitation, Compound 48/80 was added to a final concentration of […], in order to stimulate histamine release. The cell stimulation was stopped after 2 min by the addition of 0.5 ml ice cold BSS, the incubation tubes were transferred to an ice bath. The cell suspensions were centrifuged for 5 min at 400 g. The “total histamine content” tube was placed at 100° C. for 2 min prior to centrifugation. The supernatants were retained for histamine assay.
To 2 ml of supernatant from each tube was added 0.4 ml of 1M NaOH and 0.1 ml oPT (1% (w/v) in methanol). This was incubated at room temperature for 4 min. The reaction was stopped by the addition of 0.2 ml of 3M HCl. The supernatant from each incubation tube was assayed in duplicate and run simultaneously with a standard curve in the range 0-1000 ng/ml. The presence of the fluorescent product of the reaction was measured using a Shimazu RF-1501 spectrofluorophotometer set at λex=360 nm, λem=450 nm.
Each drug was tested on at least five animals (n=5). The results were expressed as a percentage of maximum, compound 48/80 induced, histamine release in the solvent blank sample. Each drug was compared to DSCG on the same tissues. The basal histamine release in untreated cells was noted, expressed as a percentage of the total histamine content of the cells in suspension. […]

The next assay deals with ileum. Nature of the assay: Smooth muscle effects: CaCl2 induced contractions of ileum. Further details: species or system Guinea pigs. Conditions: for inhibition at 3 µM / inhibition at 10 µM / inhibition at 0.3 µM / inhibition at 0.03 µM / inhibition at 1 µM / inhibition at 0.1 µM: Cavia porcellus, read-out: Percentage Inhibition of CaCl2 Induced Contractions. How it is done: as §1
(§2) Guinea pigs (350 g approx.), of either sex, were killed in an atmosphere of saturated CO2. The abdomen was opened by a mid-line incision and the small intestine was removed. The trachea was removed and sectioned between the cartilage rings, which were then split through.
(§3) Segments of ileum (1-1.5 cm) were suspended in a high potassium, no calcium Krebs buffer (NaCl 160.44 mM); KCl 45 mM; MgCl2 0.54 mM; NaH2PO4 0.89 mM; NaH2CO3 24.9 mM; Glucose 11.1 mM). Tracheal sections were suspended in normal Krebs buffer (NaCl […]; KCl 4.7 mM; CaCl2 2.5 mM; MgCl2 0.54 mM; NaH2PO4 0.89 mM; NaHCO3 24.9 mM; Glucose 11.1 mM). The solutions were maintained at 37° C. by a jacketed organ bath and gassed with 95% O2 and 5% CO2. The tissues were anchored by thread to the bottom of the organ bath and suspended from force displacement transducers under a resting tension of 1 g approx. in the case of ileum and 4 g approx. in the case of trachea. Isotonic contractions were recorded using a MacLab/4e system in conjunction with the Chart 3.3.1 software package. Surplus tissue was stored at 4° C. in Krebs buffer, for a maximum of 48 hours.
(§4) Four segments of tissue were suspended and observed concurrently. Contractions were initiated by the addition of 25 μl of 1M CaCl2 (a final concentration of 2.5 mM). The contractions stabilized with time, 10-15 min, and could be maintained for up to 45 min. from the addition of the CaCl2. The tracheal sections were allowed to develop spontaneous resting tension over a period of 30 mins.
Stock solutions of drug were prepared at 10^−3M in 50% (v/v) DMSO. These were diluted to give; 10^−4M in 5% (v/v) DMSO and 10^−5M in 0.5% (v/v) DMSO. In cases of poor solubility the 10^−3M stock was made up in higher concentrations of DMSO. Solvent ‘blank’ solutions were prepared containing 50%, 5% and 0.5% (v/v) DMSO (or as appropriate). […] A second cumulative dose-response assay was carried out using DMSO ‘blank’ solutions only.
(§5) Each drug was tested, in duplicate, on at least three different animals (n=3). The results were expressed as percentage inhibition of the CaCl2 induced contraction in the case of ideal tissue and percentage relaxation in the case of tracheal tissue, for each tissue, at each concentration of drug in DMSO. The effect of DMSO, for each tissue at each concentration, was subtracted from the effect of the drug in DMSO, to give the effect of the drug alone. A log dose vs. response curve was plotted for each drug using the mean and the standard error of the mean for the cumulated results.

In the next assay the test system is trachea. As to the kind of experiment: Smooth muscle effects: spontaneous tone of tracheal sections. Further details: species or system Guinea pigs. Conditions: guinea pig trachea, percentage relaxation; for inhibition at 3 µM / inhibition at 10 µM: Cavia porcellus. As to the method: as §1, §2, §3, §4
Stock solutions of drug were prepared at 10^−3M in 50% (v/v) DMSO. These were diluted to give; 10^−4M in 5% (v/v) DMSO and 10^−5M in 0.5% (v/v) DMSO. In cases of poor solubility the 10^−3M stock was made up in higher concentrations of DMSO. Solvent ‘blank’ solutions were prepared containing 50%, 5% and 0.5% (v/v) DMSO (or as appropriate). A cumulative dose-response assay was carried out in the range 5×10^−8M to 10^−5M. A second cumulative dose-response assay was carried out using DMSO ‘blank’ solutions only.
as §5

For the next assay, the system named is mouse ear oedema. As to the kind of experiment: Mouse ear oedema model (arachidonic acid induced). Type of assay: in vivo, Laca mice. As to conditions: 300 μg per ear topically 30 min prior to 400 μg arachidonic acid; 1 hour after arachidonic acid; n=4. As to the method: as §1
The mouse ear oedema model was performed using Laca mice (25-35 g), of either sex. The animals were sedated with fentanyl/fluanisone (Hypnorm, Janssen). One ear was treated by the topical application of one of a range of test compounds, indomethacin or dexamethasone (all at 300 μg ear in acetone) drug. After 30 min, oedema was induced by the topical application of arachidonic acid (10 μl at […] in acetone). The thickness of each ear was measured, both before and 60 min after the induction of oedema, using a micrometer screw gauge. Ear oedema was calculated by comparing the ear width before and after induction of oedema and expressed as percentage normal.
Responses of the mouse ear to single doses of a range of compounds compared to the response to indomethacin and dexamethasone, each at a dose of 300 μg per ear administered topically 30 min prior to administration of 400 μg of arachidonic acid. Values are expressed as the percentage increase in ear thickness 1 hour after administration of arachidonic acid (all n=4, solvent controls (n=8)).

The mark [1] stands for this setting: 3 × 10^−6 M, guinea pig ileum, DMSO effect subtracted.
Where [2] appears, read: 10^−5 M, guinea pig ileum, DMSO effect subtracted.

Structures are written as SMILES. Read-outs that look alike come from different tables or passages of the source.

As usually defined, the inhibition is the relative decrease from the control value, in per cent. As to `CC(=O)N(C1CCc2ccccc21)C1CC(=O)c2ccccc21` (stereo not shown) [Compound 5C9, N-1-Indanyl-N-3-indan-1-onylethanamide], in the assay with mast cells, the inhibition at 20 µM came out at 14.3%. For the same compound, the inhibition at 3 µM was 9.06% in the assay with ileum (setting [1]) and 2.64% with trachea (3 × 10^−6 M). The inhibition at 10 µM in the assay with ileum (setting [2]) was 18.3%; with trachea (10^−5 M), 2.38%.

With `CC(=O)N(C1Cc2ccccc2C1)C1CC(=O)c2ccccc21` (stereo not shown) [Compound 6C11, N-2-Indanyl-N-3-indan-1-onylethanamide], the inhibition at 20 µM in the assay on mast cells is 4.26%. Besides, the inhibition at 3 µM with ileum (setting [1]) was found to be 8%. The inhibition at 10 µM with ileum (setting [2]) amounted to 12.5%. In addition, in the assay with mouse ear oedema, the “percentage increase in ear thickness (Mean %)” value (“percentage increase … (Mean %)” below) was determined as 26.0%.

For the compound `Cc1ccc(S(=O)(=O)N(C2Cc3ccccc3C2)C2CC(=O)c3ccccc32)cc1` (stereo not shown) [Compound 6C10, N-2-Indanyl-N-3-indan-1-onyl-p-toluenesulfonamide], the inhibition at 20 µM in the assay on mast cells was found to be 51.1%. For the same compound, the inhibition at 3 µM in the assay on trachea (3 × 10^−6 M) is -0.75%. Also, the inhibition at 10 µM in the assay with trachea (10^−5 M) was determined as 0.5%.

Take `C=CCN(C1CC(=O)c2ccccc21)[C@H]1CCc2ccccc21` (stereo partly shown) [5C6 BS]: in the assay with mast cells, the “Percentage Inhibition of Histamine Release” value was found to be 80.29%. Also, the “Percentage Inhibition of CaCl2 Induced Contractions” value in the assay with ileum (setting [1]) is on record as 13.66%; with ileum (setting [2]) it was 31.47%. The “Percentage Inhibition of Spontaneous Tone” value in the assay on trachea (3 × 10^−6 M) was 2.03%; in the assay with trachea (10^−5 M) it was 4.09%.

Turning to `CN(C1Cc2ccccc2C1)C1CC(=O)c2ccccc21` (stereo not shown) [Compound 6C6, 3-(N-methyl-N-2-indanylamino)-indan-1-one], in the assay on mast cells, the inhibition at 20 µM came to 68%. Moreover, in the assay on ileum (setting [1]), the inhibition at 3 µM worked out at 12.6%. Moreover, the inhibition at 0.3 µM in the assay on ileum (3 × 10^−7 M, guinea pig ileum, DMSO effect subtracted) was 4.64%. The inhibition at 0.03 µM in the assay with ileum (3 × 10^−8 M, guinea pig ileum, DMSO effect subtracted) is 0.15%. The inhibition at 10 µM in the assay with ileum (setting [2]) was 22.9%. In addition, the inhibition at 1 µM in the assay with ileum (10^−6 M, guinea pig ileum, DMSO effect subtracted) worked out at 9.01%. Moreover, the inhibition at 0.1 µM in the assay on ileum (10^−7 M, guinea pig ileum, DMSO effect subtracted) was found to be 2.75%. Moreover, in the assay with mouse ear oedema, the “percentage increase … (Mean %)” value is 73.0%.

On to `COc1ccc2c(c1)c(CC(=O)O)c(C)n2C(=O)c1ccc(Cl)cc1` [Indomethacin, reference compound], for which the “percentage increase … (Mean %)” value in the assay on mouse ear oedema turned out to be 39.6%.

As for `C=CCN(C1Cc2ccccc2C1)C1CC(=O)c2ccccc21` (stereo not shown) [Compound 6C7, 3-(N-prop-2-enyl-N-2-indanylamino)-indan-1-one], the inhibition at 20 µM in the assay on mast cells worked out at 89.5%. Moreover, in the assay with ileum, the inhibition at 0.03 µM is 1.16%, the inhibition at 0.1 µM came to 3.15%, the inhibition at 0.3 µM was 4.52% and the inhibition at 1 µM was 5.36%. For the same compound, in the assay with ileum, the inhibition at 3 µM is 10.7% and the inhibition at 10 µM was 21.8%. Moreover, the “percentage increase … (Mean %)” value in the assay with mouse ear oedema was found to be 71.5%.

On to `C[C@@H]1C[C@H]2[C@@H]3CCC4=CC(=O)C=C[C@]4(C)[C@@]3(F)[C@@H](O)C[C@]2(C)[C@@]1(O)C(=O)CO` [Dexamethasone, reference compound], for which the “percentage increase … (Mean %)” value in the assay with mouse ear oedema was 37.9%.

Turning to `C=CCN(C1CCc2ccccc21)C1CC(=O)c2ccccc21` (stereo not shown) [5C6 TR], the inhibition at 20 µM in the assay with mast cells was 80%. Besides, in the assay with trachea (3 × 10^−6 M), the inhibition at 3 µM is 1.5%. The inhibition at 10 µM in the assay on trachea (10^−5 M) amounted to 4.97%.

As to `C=CCN(C1CC(=O)c2ccccc21)[C@H]1CCc2ccccc21` (stereo partly shown) [5C6 TS], the inhibition at 20 µM with mast cells was found to be 75.2%. The “Percentage Inhibition of CaCl2 Induced Contractions” value in the assay with ileum (setting [1]) turned out to be 5.29%. Also, the inhibition at 10 µM in the assay on ileum (setting [2]) is 19.4%; in the assay on trachea (10^−5 M) it was 2.71%. In addition, the inhibition at 3 µM with trachea (3 × 10^−6 M) was 1.63%.

The values above are taken from patent US6423752B1, “Indane dimer compounds with smooth muscle relaxing and/or mast cell stabilizing and/or anti-inflammatory activity” (Venantius Limited, priority 1995, dated 2002).
